The values that follow come from US9227919B2, “Arylalkylamine compounds as calcium sensing receptor modulators” (Lupin Limited, priority 2012, dated 2016).

Where a name gives a salt, the structure may show the parent alone.

The target in this test is T1, Calcium Sensing Receptor (CaSR) (Homo sapiens, UniProt P41180).
T1 construct: expressed in transfected cells
T1 sequence (P41180 20-1078): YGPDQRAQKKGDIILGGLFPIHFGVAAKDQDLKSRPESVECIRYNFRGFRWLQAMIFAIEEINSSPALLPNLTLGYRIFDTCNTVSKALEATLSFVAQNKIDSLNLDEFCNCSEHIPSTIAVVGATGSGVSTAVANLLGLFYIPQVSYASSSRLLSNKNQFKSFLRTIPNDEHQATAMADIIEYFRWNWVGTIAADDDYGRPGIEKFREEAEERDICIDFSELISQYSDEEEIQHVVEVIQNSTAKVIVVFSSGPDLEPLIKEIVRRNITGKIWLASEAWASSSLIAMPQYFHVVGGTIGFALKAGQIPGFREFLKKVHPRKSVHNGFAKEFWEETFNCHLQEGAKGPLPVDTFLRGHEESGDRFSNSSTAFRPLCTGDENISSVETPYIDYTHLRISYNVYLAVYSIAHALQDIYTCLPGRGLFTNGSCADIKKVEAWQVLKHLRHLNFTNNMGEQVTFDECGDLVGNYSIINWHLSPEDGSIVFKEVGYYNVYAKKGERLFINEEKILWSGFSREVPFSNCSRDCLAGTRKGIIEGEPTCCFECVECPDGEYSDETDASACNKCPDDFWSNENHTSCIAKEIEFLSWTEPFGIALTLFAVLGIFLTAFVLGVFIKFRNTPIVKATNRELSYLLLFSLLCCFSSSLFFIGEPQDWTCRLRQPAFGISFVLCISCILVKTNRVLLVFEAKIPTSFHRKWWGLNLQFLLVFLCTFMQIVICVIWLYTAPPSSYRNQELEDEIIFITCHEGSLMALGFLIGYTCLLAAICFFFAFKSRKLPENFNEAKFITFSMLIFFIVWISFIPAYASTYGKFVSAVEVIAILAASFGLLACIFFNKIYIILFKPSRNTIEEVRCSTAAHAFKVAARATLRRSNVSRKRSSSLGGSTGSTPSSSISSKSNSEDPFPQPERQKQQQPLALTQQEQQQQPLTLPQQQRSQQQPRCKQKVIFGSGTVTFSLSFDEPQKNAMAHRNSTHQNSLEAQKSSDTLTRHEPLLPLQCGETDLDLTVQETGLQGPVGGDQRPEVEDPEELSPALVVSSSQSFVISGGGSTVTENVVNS
The test is described as follows: In-vitro assay of calcimimetics through modulation of Calcium Sensing Receptor (intracellular calcium increase, FLIPR). In kind it is cell-based. Conditions: stably transfected HEK293 cells expressing hCaSR; Fluo4NW dye; 0.3 mM CaCl2; 8-point assay; read-out: EC50 Range. Here is the method: Certain illustrative compounds within the scope of the invention are screened for CaSR activity according to the procedure given below. The screening of the compounds may also be carried by other methods and procedures known to skilled in the art.
In-vitro assay method of Calcimimetics through modulation of Calcium Sensing Receptor (CaSR):
The ability of the compounds to modulate Calcium sensing receptor is determined by measuring an increase in intracellular calcium [Ca^2+]i. Stably transfected HEK293 cells expressing hCaSR_pTriEx-3 hygro vector are developed. Cells are grown overnight on a 96-well plate to 80% confluency in Ham's F12 containing 20% FBS at 37° C., 5% CO2. Subsequently, cells are washed extensively with 20 mM HEPES buffer containing 126 mM […], 1 mM MgCl2 and 4 mM KCl to remove serum components that might interfere with the assay. Cells are loaded with calcium sensing Fluo4NW dye in HEPES base buffer containing 0.1% BSA and lmg/ml glucose for 30 minutes to measure changes in intracellular calcium. The activities of the compounds are measured in FLIPR using 0.3 mM CaCl2 in 20 mM HEPES base buffer. The effectiveness of the compound to modulate receptor activity is determined by calculating the EC50 responses for that compound in an 8-point assay and plotted using GraphPad Prism 5.
The compounds prepared were tested using the above assay procedure and the results obtained are given below.
Background: Calcium assays in cells follow changes in intracellular calcium, usually with a dye or a luminescent sensor.

A word on the EC50: it is the concentration needed to bring the measured effect to its halfway point. Turning to `Cc1ccc(C2CC(N[C@H](C)c3cccc4ccccc34)Cc3ccccc32)cc1C(=O)O` (stereo partly drawn) [Example 22, 2-Methyl-5-(3-(((R)-1-(naphthalen-1-yl)ethyl)amino)-1,2,3,4-tetrahydronaphthalen-1-yl)benzoic acid hydrochloride], the EC50 fell in the range of 20 to 50 nM. In the case of `Cc1cc(C2CC(N[C@H](C)c3cccc4ccccc34)Cc3ccccc32)ccc1C(=O)O` (stereo partly drawn) [Example 23, 2-Methyl-4-(3-(((R)-1-(naphthalen-1-yl)ethyl)amino)-1,2,3,4-tetrahydronaphthalen-1-yl)benzoic acid hydrochloride] it was 20 to 50 nM; in that of `Cc1ccc(C2C[C@H](CCN[C@H](C)c3ccc(F)c4ccccc34)Cc3ccccc32)cc1C(=O)O` (stereo partly drawn) [Example 25, 5-((3S)-3-(2-(((R)-1-(4-Fluoronaphthalen-1-yl)ethyl)amino)ethyl)-1,2,3,4-tetrahydronaphthalen-1-yl)-2-methylbenzoic acid hydrochloride], 20 to 50 nM.

Consider `Cc1ccc(C2C[C@H](CCCN[C@H](C)c3ccc(F)c4ccccc34)Cc3ccccc32)cc1C(=O)O` (stereo partly drawn) [Example 29, 5-((3S)-3-(3-(((R)-1-(4-fluoronaphthalen-1-yl)ethyl)amino)propyl)-1,2,3,4-tetrahydronaphthalen-1-yl)-2-methylbenzoic acid hydrochloride], for which the concentration for a half-maximal effect (EC50) is under 20 nM. In the case of `Cc1ccc(C2C[C@@H](CCCN[C@H](C)c3cccc4ccccc34)Cc3ccccc32)cc1C(=O)O` (stereo partly drawn) [Example 31, 2-Methyl-5-((3R)-3-(3-(((R)-1-(naphthalen-1-yl)ethyl)amino)propyl)-1,2,3,4-tetrahydronaphthalen-1-yl)benzoic acid hydrochloride] it was under 20 nM.

On to `Cc1ccc(N2C[C@@H](CN[C@H](C)c3cccc4ccccc34)Cc3ccccc32)cc1C(=O)O` [Example 69a, 2-Methyl-5-(3-((((R)-1-(naphthalen-1-yl)ethyl)amino)methyl)-3,4-dihydroquinolin-1(2H)-yl)benzoic acid hydrochloride], for which the EC50 was under 20 nM.
